# Reference: ChEMBL document CHEMBL1250468, “Synthesis of aryl-heteroaryl ureas (AHUs) based on 4-aminoquinoline and their evaluation against the insulin-like growth factor receptor (IGF-1R)” (Bioorg Med Chem, 2010)
# Molecular target: Insulin-like growth factor 1 receptor (Homo sapiens, UniProt P08069)
# Experiment: Inhibition of recombinant IGF1R by ELISA
# Sequence of Insulin-like growth factor 1 receptor (P08069 31-736 limits assumed): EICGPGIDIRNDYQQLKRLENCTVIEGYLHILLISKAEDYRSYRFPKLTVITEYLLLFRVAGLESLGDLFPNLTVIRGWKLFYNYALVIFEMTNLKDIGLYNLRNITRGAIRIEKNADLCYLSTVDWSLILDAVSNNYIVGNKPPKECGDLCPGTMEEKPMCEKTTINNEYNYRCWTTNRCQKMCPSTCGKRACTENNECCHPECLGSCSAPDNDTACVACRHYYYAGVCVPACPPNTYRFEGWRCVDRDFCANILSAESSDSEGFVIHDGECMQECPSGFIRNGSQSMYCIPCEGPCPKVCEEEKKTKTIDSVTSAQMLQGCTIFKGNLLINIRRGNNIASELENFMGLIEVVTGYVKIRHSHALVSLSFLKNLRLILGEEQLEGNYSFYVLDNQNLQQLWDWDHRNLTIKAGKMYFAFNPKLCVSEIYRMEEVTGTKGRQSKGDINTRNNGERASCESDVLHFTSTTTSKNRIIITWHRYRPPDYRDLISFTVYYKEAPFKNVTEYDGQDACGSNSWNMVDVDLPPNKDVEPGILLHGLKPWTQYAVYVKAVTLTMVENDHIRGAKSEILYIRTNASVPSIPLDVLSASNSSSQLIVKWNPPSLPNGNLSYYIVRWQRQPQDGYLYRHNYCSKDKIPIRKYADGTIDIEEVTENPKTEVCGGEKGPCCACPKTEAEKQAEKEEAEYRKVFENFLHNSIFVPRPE
# Sequence of Insulin-like growth factor 1 receptor (P08069 741-1367 limits assumed): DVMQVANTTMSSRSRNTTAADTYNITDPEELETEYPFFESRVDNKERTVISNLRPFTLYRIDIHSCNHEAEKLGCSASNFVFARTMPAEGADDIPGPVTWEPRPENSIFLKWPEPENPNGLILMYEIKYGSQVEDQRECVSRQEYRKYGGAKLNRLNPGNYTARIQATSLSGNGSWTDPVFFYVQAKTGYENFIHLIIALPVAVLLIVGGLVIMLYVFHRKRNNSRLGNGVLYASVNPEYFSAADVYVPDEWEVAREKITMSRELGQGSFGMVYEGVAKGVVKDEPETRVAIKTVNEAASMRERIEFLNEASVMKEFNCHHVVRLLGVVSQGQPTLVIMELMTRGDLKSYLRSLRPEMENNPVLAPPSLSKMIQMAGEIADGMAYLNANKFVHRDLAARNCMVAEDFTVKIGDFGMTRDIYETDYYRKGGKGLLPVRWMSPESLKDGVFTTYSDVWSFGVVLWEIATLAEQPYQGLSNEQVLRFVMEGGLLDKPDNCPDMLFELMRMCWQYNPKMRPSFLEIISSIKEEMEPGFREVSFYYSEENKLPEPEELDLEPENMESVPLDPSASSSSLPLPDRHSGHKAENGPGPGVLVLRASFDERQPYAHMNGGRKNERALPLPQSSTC
row,SMILES,IC50 [µM]
1,O=C(Nc1ccc(-c2ncccn2)cc1)Nc1cc(C(F)(F)F)nc2ccccc12,19.3
2,O=C(Nc1ccc([N+](=O)[O-])cc1)Nc1cc(C(F)(F)F)nc2ccccc12,27.1
3,Cc1cncc(Oc2ccc(NC(=O)Nc3cc(C(F)(F)F)nc4ccccc34)cc2)n1,5.2
4,Cc1cc(NC(=O)Nc2cccc(-c3ncccn3)c2)c2ccccc2n1,> 30
5,O=C(Nc1ccc(Cl)cc1)Nc1cc(C(F)(F)F)nc2ccccc12,28.1
6,O=C(Nc1ccc(OC(F)(F)F)cc1)Nc1cc(C(F)(F)F)nc2ccccc12,6.7
7,COc1ccc(NC(=O)Nc2cc(C(F)(F)F)nc3ccccc23)cc1,> 30
8,O=C(Nc1ccc(Cl)cc1)Nc1cc(Cl)nc2ccccc12,21.1
9,O=C(Nc1cccc(-c2ncccn2)c1)Nc1cc(C(F)(F)F)nc2ccccc12,> 30
10,Cc1cc(NC(=O)Nc2ccc(-c3ncccn3)cc2)c2ccccc2n1,> 30
11,Cc1cncc(Oc2ccc(NC(=O)Nc3cc(Cl)nc4ccccc34)cc2)n1,> 30
12,O=C(Nc1ccc(OC(F)(F)F)cc1)Nc1cc(Cl)nc2ccccc12,21.4
13,COc1ccc(NC(=O)Nc2cc(Cl)nc3ccccc23)cc1,> 30
14,O=C(Nc1ccc(-c2ncccn2)cc1)Nc1cc(Cl)nc2ccccc12,> 30
15,Cc1cncc(Oc2ccc(NC(=O)Nc3cc(C)nc4ncccc34)cc2)n1,12.5
16,O=C(Nc1cccc(-c2ncccn2)c1)Nc1cc(Cl)nc2ccccc12,> 30
17,Cc1cncc(Oc2ccc(NC(=O)Nc3cc(C)nc4ccccc34)cc2)n1,5.6

# Other lines, results leading:
row,IC50 [µM],SMILES
1,18.7,COc1ccc(Cl)cc1NC(=O)Nc1cc(C)nc2ccccc12
2,> 30,COc1ccc(NC(=O)Nc2cc(C)nc3ccccc23)cc1Cl
3,> 30,COc1ccc(Cl)cc1NC(=O)Nc1cc(C)nc2cnccc12
4,6.5,COc1ccc(Cl)cc1NC(=O)Nc1cc(=O)[nH]c2ccccc12
5,24.7,COc1ccc(Cl)cc1NC(=O)Nc1cc(C)nc2ncccc12
6,> 30,COc1cc(OC)c(NC(=O)Nc2cc(C)nc3cnccc23)cc1Cl
7,> 30,Cc1cc(NC(=O)Nc2ccc(Cl)cc2)c2ccccc2n1
8,20.5,COc1ccc(Cl)cc1NC(=O)Nc1cc(C)nc2c1CCCN2
9,14.9,COc1ccc(Cl)cc1NC(=O)Nc1cc(Cl)nc2ccccc12
10,> 30,COc1ccc(NC(=O)Nc2cc(Cl)nc3ccccc23)cc1Cl
